Source: patent US7425557B2, “Inhibitors of glycogen synthase kinase 3” (Novartis Vaccines and Diagnostics, Inc., priority 1998, dated 2008)
pIC50: −log10 of the molar value.

Target: human GSK3β (Homo sapiens, UniProt P49841)
Experiment: Screening for GSK3 inhibitory activity using a cell-free assay
Type: biochemical
Conditions: read-out: IC50 with respect to GSK3
Method in brief: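 Radiometric cell-free assay with recombinant human GSK3β phosphorylating a biotinylated peptide substrate for 3 h. Reactions were stopped with 50 μM ATP/20 mM EDTA and captured on streptavidin plates. Incorporated radiolabel was counted by scintillation and plotted against compound concentration.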

Sequence of human GSK3β (P49841 whole entry): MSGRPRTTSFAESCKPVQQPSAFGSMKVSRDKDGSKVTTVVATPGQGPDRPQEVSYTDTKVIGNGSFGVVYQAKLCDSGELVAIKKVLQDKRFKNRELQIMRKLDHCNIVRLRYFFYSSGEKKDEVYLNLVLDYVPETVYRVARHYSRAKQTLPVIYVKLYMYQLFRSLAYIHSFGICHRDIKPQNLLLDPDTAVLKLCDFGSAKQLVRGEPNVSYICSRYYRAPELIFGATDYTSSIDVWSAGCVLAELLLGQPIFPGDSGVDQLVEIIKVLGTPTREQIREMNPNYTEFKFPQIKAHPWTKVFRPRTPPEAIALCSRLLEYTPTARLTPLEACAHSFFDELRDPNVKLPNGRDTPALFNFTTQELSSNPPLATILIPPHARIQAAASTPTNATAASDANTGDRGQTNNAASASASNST

Structure (SMILES) | pIC50
NC(=O)C(Cc1ccccc1)NC(=O)c1ccc(-c2ccnc(NCCc3ccccn3)n2)cc1 (stereo not drawn) [N-(1-carbamoyl-2-phenyl-ethyl)(4-{2-[(2-(2-pyridyl)ethyl)amino]pyrimidin-4-yl}phenyl)carboxamide] | ≥ 5.00
Cc1cnc(CNc2nccc(-c3ccc(C(N)=O)cc3)n2)cn1 [4-(2-{[(5-methylpyrazin-2-yl)methyl]amino}pyrimidin-4-yl)benzamide] | ≥ 5.00
Nc1nc(NCCNc2ccc(-n3ccnc3)c(-c3ccc(Cl)cc3Cl)n2)ccc1[N+](=O)[O-] [{2-[(6-amino-5-nitro(2-pyridyl))amino]ethyl}[6-(2,4-dichlorophenyl)-5-imidazolyl(2-pyridyl)]amine] | ≥ 6.00
CN(C)CCOC(=O)c1cnc(NCCNc2ccc([N+](=O)[O-])c(N)n2)nc1-c1ccc(Cl)cc1Cl [2-(dimethylamino)ethyl 2-({2-[(6-amino-5-nitro(2-pyridyl))amino]ethyl}amino)-4-(2,4-dichlorophenyl)pyrimidine-5-carboxylate] | ≥ 6.00
CCOC(=O)c1cnc(NCCNc2ccc([N+](=O)[O-])cn2)nc1-c1ccc(C)c(C)c1 [ethyl 4-(3,4-dimethylphenyl)-2-[{2-[(5-nitro(2-pyridyl))amino]ethyl}amino)pyrimidine-5-carboxylate] | ≥ 5.00
CCOC(=O)c1cnc(NCCNc2ccc([N+](=O)[O-])cn2)nc1-c1ccc(-c2nnn[nH]2)cc1 [ethyl 4-(4-(1H-1,2,3,4-tetraazol-5-yl)phenyl)-2-({2-[(5-nitro(2-pyridyl))amino]ethyl}amino)pyrimidine-5-carboxylate] | ≥ 6.00
O=C(NCCc1ccc(Cl)cc1Cl)c1ccc(-c2ccnc(NCCNc3ccc([N+](=O)[O-])cn3)n2)cc1 [N-[2-(2,4-dichlorophenyl)ethyl]{4-[2-({2-[(5-nitro(2-pyridyl))amino]ethyl}-amino)pyrimidin-4-yl]phenyl}carboxamide] | ≥ 5.00
CN1CCN(c2ccc(NCCNc3ccc(C#N)cn3)nc2-c2ccc(Cl)cc2Cl)C(=O)C1 [6-[(2-{[6-(2,4-dichlorophenyl)-5-(4-methyl-2-oxo-1-piperazinyl)-2-pyridinyl]amino}ethyl)amino]nicotinonitrile] | ≥ 5.00
NC(=O)c1ccc(-c2ccnc(NCc3cccc(Br)c3)n2)cc1 [4-(2-{[(3-bromophenyl)methyl]amino}pyrimidin-4-yl)benzamide] | ≥ 5.00
NC(=O)c1ccc(-c2ccnc(NCCCOc3ccc(Cl)cc3)n2)cc1 [4-(2-{[3-(4-chlorophenoxy)propyl]amino}pyrimidin-4-yl)benzamide] | ≥ 5.00
N#Cc1ccc(-c2nc(NCCNc3ccc([N+](=O)[O-])cn3)nc(-c3ccc(F)cc3)c2C(=O)O)cc1 [4-(4-cyanophenyl)-6-(4-fluorophenyl)-2-({2-[(5-nitro(2-pyridyl))amino]ethyl}-amino)pyrimidine-5-carboxylic acid] | ≥ 6.00
CN1CCN(c2cnc(NCCNc3ccc(C#N)cn3)nc2-c2ccc(Cl)cc2Cl)C(=O)C1 [6-[(2-{[4-(2,4-dichlorophenyl)-5-(4-methyl-2-oxo-1-piperazinyl)-2-pyrimidinyl]amino}ethyl)amino]-nicotinonitrile] | ≥ 5.00
NC(=O)c1ccc(-c2ccnc(NCCNc3ccc(C(F)(F)F)cn3)n2)cc1 [4-{2-[(2-{[5-(trifluoromethyl)-2-pyridyl]amino}-ethyl)amino]pyrimidin-4-yl}benzamide] | ≥ 6.00
O=C(NCc1ccc(F)c(F)c1)c1ccc(-c2ccnc(NCCNc3ccc([N+](=O)[O-])cn3)n2)cc1 [N-[(3,4-difluorophenyl)methyl]{4-[2-({2-[(5-nitro(2-pyridyl))amino]ethyl}amino)pyrimidin-4-yl]phenyl}carboxamide] | ≥ 5.00
NC(=O)c1ccc(-c2ccnc(NCCCOc3cccc(-c4ccccc4)c3)n2)cc1 [4-(2-{[3-(3-phenylphenoxy)propyl]-amino}pyrimidin-4-yl)benzamide] | ≥ 5.00
Nc1nc(NCCNc2ccc([N+](=O)[O-])c(-c3ccc(Cl)cc3Cl)n2)ccc1[N+](=O)[O-] [{2-[(6-amino-5-nitro(2-pyridyl))amino]ethyl}[6-(2,4-dichlorophenyl)-5-nitro(2-pyridyl)]amine] | ≥ 6.00
N#Cc1ccc(-c2nc(NCCNc3ccc([N+](=O)[O-])cn3)nc(-c3ccc([N+](=O)[O-])cc3)c2C(=O)O)cc1 [4-(4-cyanophenyl)-2-({2-[(5-nitro(2-pyridyl))-amino]ethyl}amino)-6-(4-nitrophenyl)pyrimidine-5-carboxylic acid] | ≥ 6.00
NC(=O)c1ccc(-c2ccnc(NCCCCc3ccccc3)n2)cc1 [4-{2-[(4-phenylbutyl)amino]-pyrimidin-4-yl}benzamide] | ≥ 5.00
NC(=O)c1ccc(-c2ccnc(NCCCOc3ccccc3)n2)cc1 [4-{2-[(3-phenoxypropyl)amino]pyrimidin-4-yl}benzamide] | ≥ 5.00
CCOC(=O)c1cnc(NCCNc2ccc([N+](=O)[O-])c(NC)n2)nc1-c1ccc(C#N)cc1 [ethyl 4-(4-cyanophenyl)-2-[(2-{[6-(methylamino)-5-nitro(2-pyridyl)]amino}ethyl)amino]pyrimidine-5-carboxylate] | ≥ 5.00

Structure (SMILES) | pIC50
CC(C)(C)NC(=O)c1cnc(NCCNc2ccc([N+](=O)[O-])cn2)nc1-c1ccc(C#N)cc1 [N-(tert-butyl)[4-(4-cyano-phenyl)-2-({2-[(5-nitro(2-pyridyl))amino]ethyl}amino)pyrimidin-5-yl]carboxamide] | ≥ 6.00
FC(F)(F)Oc1ccc(-c2ccnc(NCCNc3ccccn3)n2)cc1 [[2-(2-pyridylamino)ethyl]{4-[4-(trifluoromethoxy)-phenyl]pyrimidin-2-yl}amine] | ≥ 5.00
CCOC(=O)c1cnc(NCCc2ccccn2)nc1-c1ccc(F)cc1 [ethyl 4-(4-fluorophenyl)-2-[(2-(2-pyridyl)ethyl)amino]pyrimidine-5-carboxylate] | ≥ 5.00
N#Cc1ccc(-c2nc(NCCNc3ccc([N+](=O)[O-])cn3)ncc2C(=O)OCC(O)CN2CCOCC2)cc1 (stereo not drawn) [2-hydroxy-3-morpholin-4-yl-propyl 4-(4-cyanophenyl)-2-({2-[(5-nitro(2-pyridyl))amino]ethyl}amino)pyrimidine-5-carboxylate] | ≥ 6.00
CCOC(=O)c1cnc(NCCNc2ccc([N+](=O)[O-])cn2)nc1-c1ccc(OC)cc1 [ethyl 4-(4-methoxyphenyl)-2-({2-[(5-nitro(2-pyridyl))amino]ethyl}amino)pyrimidine-5-carboxylate] | ≥ 6.00
CCOC(=O)c1cnc(NCCNc2ccc(C(F)(F)F)cn2)nc1-c1ccc(C#N)cc1 [ethyl 4-(4-cyanophenyl)-2-[(2-{[5-(trifluoromethyl)(2-pyridyl)]amino}ethyl)-amino]pyrimidine-5-carboxylate] | ≥ 6.00
O=C(NCC1CCNCC1)c1ccc(-c2ccnc(NCCNc3ccc([N+](=O)[O-])cn3)n2)cc1 [{4-[2-({2-[(5-nitro(2-pyridyl))amino]ethyl}amino)pyrimidin-4-yl]phenyl}-N-(4-piperidylmethyl)carboxamide] | ≥ 5.00
N#Cc1ccc(NCCNc2ncc(-c3ncc[nH]3)c(-c3ccc(Cl)cc3Cl)n2)nc1 [6-[(2-{[4-(2,4-dichlorophenyl)-5-imidazol-2-ylpyrimidin-2-yl]amino}ethyl)amino]pyridine-3-carbonitrile] | ≥ 6.00
N#Cc1ccc(NCCNc2nccc(-c3ccc(C(=O)NCc4cccc(Br)c4)cc3)n2)nc1 [N-[(3-bromophenyl)methyl]{4-[2-({2-[(5-cyano(2-pyridyl))amino]ethyl}-amino)pyrimidin-4-yl]phenyl}carboxamide] | ≥ 6.00
N#Cc1ccc(-c2nc(NCCNc3ccc([N+](=O)[O-])cn3)ncc2NCc2ccccc2)cc1 [4-[2-({2-[(5-nitro(2-pyridyl))amino]ethyl}amino)-5-[benzylamino]pyrimidin-4-yl]benzenecarbonitrile] | ≥ 6.00
CCOC(=O)c1cnc(NCCNc2ccc([N+](=O)[O-])cn2)nc1Nc1ccc(Cl)cc1Cl [ethyl 4-[(2,4-dichlorophenyl)amino]-2-({2-[(5-nitro(2-pyridyl))amino]-ethyl}amino)pyrimidine-5-carboxylate] | ≥ 5.00
COc1cc(CNc2nccc(-c3ccc(C(N)=O)cc3)n2)cc(OC)c1OC [4-(2-{[(3,4,5-trimethoxyphenyl)methyl]amino}pyrimidin-4-yl)benzamide] | ≥ 5.00
CCOC(=O)c1cnc(NCCNc2ccc([N+](=O)[O-])cn2)nc1-c1cccc(F)c1 [ethyl 4-(3-fluorophenyl)-2-({2-[(5-nitro(2-pyridyl))amino]ethyl}amino)pyrimidine-5-carboxylate] | ≥ 5.00
O=C(O)c1c(-c2ccc([N+](=O)[O-])cc2)nc(NCCNc2ccc([N+](=O)[O-])cn2)nc1C1CCCCC1 [4-cyclohexyl-2-({2-[(5-nitro(2-pyridyl))amino]ethyl}amino)-6-(4-nitrophenyl)pyrimidine-5-carboxylic acid] | ≥ 5.00
O=[N+]([O-])c1ccc(NCCNc2ncc(-n3cnc4ccccc43)c(-c3ccc(Cl)cc3Cl)n2)nc1 [[5-benzimidazolyl-4-(2,4-dichlorophenyl)pyrimidin-2-yl]{2-[(5-nitro-(2-pyridyl))amino]ethyl}amine] | ≥ 6.00
CN1CCN(c2ccc(NCCNc3ccc([N+](=O)[O-])c(N)n3)nc2-c2cccnc2)C(=O)C1 [1-{6-[2-(6-Amino-5-nitropyridin-2-ylamino)-ethylamino]-[2,3′]bipyridinyl-3-yl}-4-methyl-piperazin-2-one] | ≥ 5.00
O=[N+]([O-])c1ccc(NCCNc2ncc(-c3ncc[nH]3)c(-c3ccc(F)cc3Cl)n2)nc1 [[4-(2-chloro-4-fluorophenyl)-5-imidazol-2-ylpyrimidin-2-yl]{2-[(5-nitro(2-pyridyl))amino]ethyl}amine] | ≥ 6.00
CCOC(=O)c1cnc(NCCNc2ccc(C#N)cn2)nc1-c1ccc(C#N)cc1 [ethyl 2-({2-[(5-cyano(2-pyridyl))amino]ethyl}amino)-4-(4-cyanophenyl)pyrimidine-5-carboxylate] | ≥ 6.00
O=[N+]([O-])c1cnc(NCCNc2ccccn2)nc1-c1ccccc1 [(5-nitro-4-phenylpyrimidin-2-yl)[2-(2-pyridylamino)ethyl]amine] | ≥ 6.00
